Tested on: normal human nasal epithelial cells
Assay: Intracellular calcium [Ca^2+ ]i in single normal human nasal epithelial cells (Fura-2)
Type: cell-based
Description: Freshly excised human nasal epithelium from normal or cystic fibrosis subjects was grown in primary culture in F-12, hormone-supplemented medium in accordance with known procedures. See R. Wu et al., Am. Rev. Respir. Dis. 132, 311-320 (1985). For [Ca^2+ ]i measurements, cultures were grown on non-fluorescent vitrogen substrates on glass coverslips. Cultures for electrophysiologic studies were grown to confluence on permeable collagen matrix supports (CMS), allowing addition of agonists to the basolateral or apical surface of the epithelial sheet.
Primary human nasal epithelial cells grown to confluence on vitrogen coated coverslips were loaded with a final concentration of 3 μM Fura-2/AM at 37° C. for 30 minutes. The cells were then washed in NaCl Ringer and mounted in a chamber for measurements of fluorescence. To reduce the rate of leakage of Fura-2 from the cell into the extracellular space and avoid time-dependent compartmentalization of the probe, all measurements of [Ca^2+ ]i were performed at 25° C. At this temperature,no vesicular bright spots indicative of compartmentalization of the probe were observed.
Measurements of [Ca^2+ ]i in single human nasal epithelial cells were obtained with a modular microspectrofluorimeter (SPEX Industries, Inc., Edison, N.J.) attached to a Zeiss Axiovert IM 35 microscope. The system was equipped with a xenon lamp, beam splitter, two monochromators and a rotating chopper mirror that permitted excitation of cell fluorescence at alternating wavelengths of 340 and 380 nm (emission ≥450 nm). The fluorescent signal from a single cell was measured with a photometer equipped with a pinhole (spot diameter of 3-5 μm) that excluded signals from adjacent cells.
After agonist was added, the fluorescent signal was quenched by a NaCl ringer solution containing 1.5×10^-4 M digitonin and 10^-3 M MnCl2. The remaining signal at each excitation wavelength, equivalent to the background fluorescence in non loaded cells, was subtracted from data from Fura-2/AM loaded cells before the ratio (340 nm/380 nm) was taken. The 340 nm/380 nm ratio was converted to an actual [Ca^2+ ]i measurement by using the external calibration standards and the formula derived by G. Grynkiewicz et al., J. Biol. Chem. 260, 3440-3450 (1985), used with dual wavelength measurements: [Ca^2+ ]i =K [(Rx --Ro)/(Rs --Rx)], with Ro and Rs representing the ratios at 0 Ca^2+ and saturating Ca^2+, respectively. Rx represents the experimental ratio.
To investigate whether changes in [Ca^2+ ]i might be related to regulation of ion transport, receptor characterization was performed by measuring changes in [Ca^2+ ]i in response to a number of nucleotide drugs. Concentration-effect curves for agonists active at P2x, P2y subtype or UTP sensitive receptors and other purine or pyrimidine receptor agonists were generated, measuring mean change in [Ca^2+ ]i in response to agonist concentration. Data are shown in FIG. 3, which gives log concentration-effect relationships of purinergic and pyrimidinergic compounds on [Ca^2+ ]i (mean change in [Ca^2+ ]i over basal levels).

Nc1ncnc2c1ncn2[C@@H]1O[C@H](COP(=O)(O)OP(=O)(O)OP(=O)(O)O)[C@@H](O)[C@H]1O [ATP, adenosine triphosphate]
[Ca^2+ ]i response in Ca^2+ -free medium (Ca^2+ -free medium): initial sharp increase in [Ca^2+ ]i | time for [Ca^2+ ]i to return to baseline (Ca^2+ -free medium): two | effectiveness for raising [Ca^2+ ]i (concentration-effect curves, FIG. 3): most effective agonists | [Ca^2+ ]i response (extracellular application, Ca^2+ -containing solution): immediate increase in [Ca^2+ ]i levels | plateau phase on return to Ca^2+ -containing solution (return of cells to Ca^2+ -containing solution): restoration of the plateau phase
